This is an account of results in patent publication US5010095A, “N-(W-substituted alkyl)-'-(imidazol-4-yl)alkyl)guanidine” (Cedona Pharmaceuticals B.V., priority 1986, dated 1991).

As a reminder, the EC50 is the concentration that produces a half-maximal response.

The test system of one experiment is histamine H2. The following applies: cited from earlier work.
In experiment [1] the target is T1, histamine H2 (guinea-pig gastric fundus) (Cavia porcellus, UniProt P47747).
T1 construct: acid secretion of the isolated gastric fundus of the guinea-pig; from tissue; host or cells: guinea-pig gastric fundus (isolated organ)
T1 sequence (P47747 whole entry): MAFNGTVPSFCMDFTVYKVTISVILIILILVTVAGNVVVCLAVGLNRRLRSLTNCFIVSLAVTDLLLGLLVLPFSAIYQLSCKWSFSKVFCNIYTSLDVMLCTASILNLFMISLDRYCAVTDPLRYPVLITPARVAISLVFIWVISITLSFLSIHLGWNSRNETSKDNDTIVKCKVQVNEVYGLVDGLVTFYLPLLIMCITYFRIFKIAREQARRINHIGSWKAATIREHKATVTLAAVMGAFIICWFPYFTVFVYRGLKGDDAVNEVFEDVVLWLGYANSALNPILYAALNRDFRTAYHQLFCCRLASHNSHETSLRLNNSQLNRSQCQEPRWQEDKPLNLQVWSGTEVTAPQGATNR
Description: Histamine H2-activity, acid secretion of the isolated gastric fundus of the guinea-pig. The source says: (§1) The values for the H1 -activity given are the mean of at least two experiments in quadruplicate, while the values for the H2 -activity result from at least two experiments in duplicate.
Guinea-pig gastric acid secretion (H2)

The target in experiment [2] is T2, histamine H1 (guinea-pig ileum) (Cavia porcellus, UniProt P31389).
T2 construct: from tissue; host or cells: guinea-pig ileum (isolated organ)
T2 sequence (P31389 whole entry): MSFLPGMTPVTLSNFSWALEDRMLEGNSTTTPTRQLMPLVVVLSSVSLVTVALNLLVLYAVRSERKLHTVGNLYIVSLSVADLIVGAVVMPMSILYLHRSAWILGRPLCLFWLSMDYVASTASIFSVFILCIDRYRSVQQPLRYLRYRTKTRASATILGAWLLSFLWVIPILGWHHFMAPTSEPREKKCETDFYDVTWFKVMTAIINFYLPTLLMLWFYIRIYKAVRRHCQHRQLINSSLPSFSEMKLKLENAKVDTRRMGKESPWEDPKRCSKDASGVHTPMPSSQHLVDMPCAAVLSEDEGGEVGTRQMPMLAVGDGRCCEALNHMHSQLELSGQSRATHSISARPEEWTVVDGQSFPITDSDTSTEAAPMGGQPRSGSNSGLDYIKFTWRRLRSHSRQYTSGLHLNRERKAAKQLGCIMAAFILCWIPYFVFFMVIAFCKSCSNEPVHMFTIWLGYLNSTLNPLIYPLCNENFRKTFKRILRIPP
Kind of experiment: Histamine H1-activity, guinea-pig ileum.
From the text: as §1

The structures appear in SMILES notation. Entries after “also recorded” stand apart in the source; their conditions may differ.

For `Cc1[nH]cnc1CSCCNC(=N)NCCCc1c[nH]cn1` [Impromidine, N-[2-(5-methylimidazol-4-ylmethylthio)ethyl]-N'-[3-(imidazol-4-yl)propyl]guanidine, reference compound], in the experiment on histamine H2 (dependent on the used test system, Proc. VIIIth Internat. Symp. Med. Chem. Uppsala 1985), the “potency relative to histamine” value is listed as 5-800 times. Further, in the experiment on histamine H2 (drawback for clinical use), the “stimulation of gastric acid secretion, in words” value was “relatively high potency in stimulating the gastric acid secretion”. Moreover, in the experiment with histamine H2 (literature), the “histamine H2-agonist character, in words” value was “specific and the most potent histamine H2 -agonist; also recorded: either behaves like a partial or like a complete agonist”. Moreover, in experiment [1], a half-maximal effect (EC50) was put at 0.00316 µM. Also, the Emax in experiment [1] (guinea pig, read-out: Histamine H2-activity, gastric fundus, α (intrinsic activity)) stood at 100%. The same compound gave a Kb in experiment [2] of 3.16 µM.
